This assay relates to CD2F1 mice, intracerebral P388 leukemia, median survival T/C%. The experiment in a line: NCI In Vivo Anticancer Drug Screen. Data for tumor model P388 Leukemia (intracerebral) in CD2F1 (CDF1) mice. The settings on record: endpoint: median survival time, higher = longer survival. As for the experimental part:
The antitumor activity of compounds was measured in mice bearing transplantable tumors. Survival or tumor size were measured and the results are expressed as the measurement made in the treated group (T) divided by the measurement made in the vehicle treated control group (C). The tumor model used in this assay is P388 Leukemia (intracerebral) in CD2F1 (CDF1) mice

The mark [1] stands for this setting: dose: 8.0 mg/kg/injection, schedule: Q01DX009 (ip), vehicle: saline with Tween-80.
Setting [2] is: dose: 16.0 mg/kg/injection, schedule: Q01DX009 (ip), vehicle: saline with Tween-80.
Where [3] appears, read: dose: 32.0 mg/kg/injection, schedule: Q01DX009 (ip), vehicle: Klucel (hydroxypropylcellulose) (HPC).
The mark [4] stands for this setting: dose: 32.0 mg/kg/injection, schedule: Q01DX009 (ip), vehicle: saline with Tween-80.
Where [5] appears, read: dose: 64.0 mg/kg/injection, schedule: Q01DX009 (ip), vehicle: Klucel (hydroxypropylcellulose) (HPC).
The mark [6] stands for this setting: dose: 128.0 mg/kg/injection, schedule: Q01DX009 (ip), vehicle: Klucel (hydroxypropylcellulose) (HPC).
Setting [7] is: dose: 128.0 mg/kg/injection, schedule: Q01DX009 (ip), vehicle: saline with Tween-80.
[8] abbreviates: dose: 256.0 mg/kg/injection, schedule: Q01DX009 (ip), vehicle: Klucel (hydroxypropylcellulose) (HPC).
Where [9] appears, read: dose: 256.0 mg/kg/injection, schedule: Q01DX009 (ip), vehicle: saline with Tween-80.
Setting [10] is: dose: 512.0 mg/kg/injection, schedule: Q01DX009 (ip), vehicle: Klucel (hydroxypropylcellulose) (HPC).
Setting [11] is: dose: 512.0 mg/kg/injection, schedule: Q01DX009 (ip), vehicle: saline with Tween-80.
The mark [12] stands for this setting: dose: 50.0 mg/kg/injection, schedule: Q01DX009 (ip), vehicle: saline with Tween-80.
[13] abbreviates: dose: 100.0 mg/kg/injection, schedule: Q01DX009 (ip), vehicle: saline with Tween-80.
The mark [14] stands for this setting: dose: 8.0 mg/kg/injection, schedule: Q01DX009 (ip), vehicle: saline.
The mark [15] stands for this setting: dose: 16.0 mg/kg/injection, schedule: Q01DX009 (ip), vehicle: saline.
Where [16] appears, read: dose: 32.0 mg/kg/injection, schedule: Q01DX009 (ip), vehicle: saline.
Where [17] appears, read: dose: 64.0 mg/kg/injection, schedule: Q01DX009 (ip), vehicle: saline with Tween-80.
[18] abbreviates: dose: 12.5 mg/kg/injection, schedule: Q01DX009 (ip), vehicle: saline with Tween-80.

Several values for one entry are separate records, joined by “and”; a condition that tells them apart may be missing. Equal entries are not always repeated. Toxic doses and inconclusive results are not listed.

In the case of `CCCCCC(=O)O[C@]1(C(C)=O)CC[C@H]2[C@@H]3CCC4=CC(=O)CC[C@]4(C)[C@H]3CC[C@@]21C`, the T/C by setting is: (dose: 8.0 mg/kg/injection, schedule: Q01DX009 (ip), vehicle: Klucel (hydroxypropylcellulose) (HPC)) 118 % of control and 105 % of control; under setting [1], 535 % of control; (dose: 16.0 mg/kg/injection, schedule: Q01DX009 (ip), vehicle: Klucel (hydroxypropylcellulose) (HPC)) 100 % of control and 111 % of control; under setting [2], 100 % of control; under setting [3], 118 % of control and 105 % of control; under setting [4], 98 % of control. In addition, the T/C was 102 % of control and 111 % of control under setting [5]; 121 % of control and 100 % of control under setting [6]; 107 % of control under setting [7]; 120 % of control and 110 % of control under setting [8]; 98 % of control under setting [9]; 124 % of control and 105 % of control under setting [10]. The T/C under setting [11] is 279 % of control.

As for `COCC(O)Cn1ccnc1[N+](=O)[O-]` (centres undefined), the T/C was 113 % of control under setting [3]; 102 % of control under setting [5]; 96 % of control under setting [6]; 102 % of control under setting [8]; 102 % of control under setting [10].

Take `CC1(C)N=C(N)N=C(N)N1c1ccc(CCC(=O)Nc2ccc(S(=O)(=O)F)cc2)cc1`: the T/C runs as follows: (dose: 50.0 mg/kg/injection, schedule: Q01DX009 (ip), vehicle: saline) 111 % of control; (dose: 100.0 mg/kg/injection, schedule: Q01DX009 (ip), vehicle: saline) 100 % of control.

Regarding `O=C1N(Cl)C(=O)C(c2ccc(Cl)cc2)(c2ccc(Cl)cc2)N1Cl`, the T/C is 94 % of control under setting [12]; 105 % of control under setting [13]; 94 % of control (dose: 200.0 mg/kg/injection, schedule: Q01DX009 (ip), vehicle: saline with Tween-80).

On to `O=C1c2ccccc2C(=O)c2c(NCCNCCO)ccc(NCCNCCO)c21`, for which the T/C was 112 % of control (dose: 4.0 mg/kg/injection, schedule: Q01DX005 (ip), vehicle: saline with Tween-80); 109 % of control (dose: 4.0 mg/kg/injection, schedule: Q01DX009 (ip), vehicle: saline with Tween-80); 101 % of control and 105 % of control (dose: 4.0 mg/kg/injection, schedule: Q01DX009 (ip), vehicle: saline); 104 % of control (dose: 8.0 mg/kg/injection, schedule: Q01DX005 (ip), vehicle: saline with Tween-80); 118 % of control and 121 % of control under setting [1]; 91 % of control and 111 % of control under setting [14]. Further, the T/C was 114 % of control (dose: 16.0 mg/kg/injection, schedule: Q01DX005 (ip), vehicle: saline with Tween-80); 119 % of control and 108 % of control under setting [2]; 120 % of control and 112 % of control under setting [15]; 96 % of control (dose: 32.0 mg/kg/injection, schedule: Q01DX005 (ip), vehicle: saline with Tween-80); 87 % of control and 101 % of control under setting [4]; 90 % of control under setting [16]. Under setting [17], the T/C is 98 % of control.

As to `CCC(=O)O[C@H]1CC[C@H]2[C@@H]3CCC4=CC(=O)CC[C@]4(C)[C@H]3CC[C@]12C`, the T/C by setting is: under setting [1], 105 % of control; under setting [14], 178 % of control; under setting [2], 108 % of control; under setting [15], 106 % of control; under setting [4], 105 % of control; under setting [16], 99 % of control. The T/C by setting is: under setting [17], 117 % of control; (dose: 64.0 mg/kg/injection, schedule: Q01DX009 (ip), vehicle: saline) 100 % of control; under setting [7], 100 % of control; (dose: 128.0 mg/kg/injection, schedule: Q01DX009 (ip), vehicle: saline) 100 % of control; under setting [9], 107 % of control; (dose: 256.0 mg/kg/injection, schedule: Q01DX009 (ip), vehicle: saline) 100 % of control. In addition, the T/C reads like this: under setting [11], 106 % of control; (dose: 512.0 mg/kg/injection, schedule: Q01DX009 (ip), vehicle: saline) 109 % of control.

For the compound `Cc1cnc(/C=N\NC(N)=S)c2cccc(N)c12`, the T/C under setting [18] was 99 % of control; the T/C (dose: 25.0 mg/kg/injection, schedule: Q01DX009 (ip), vehicle: saline with Tween-80) is 102 % of control; the T/C under setting [12] is 104 % of control; the T/C under setting [13] was 98 % of control.

As for `CSCS(=O)C[C@H](CO)NC(=O)/C=C/c1c(C)[nH]c(=O)[nH]c1=O` (some centres undefined), the T/C is 103 % of control and 104 % of control (dose: 0.06 mg/kg/injection, schedule: Q01DX005 (ip), vehicle: Klucel (hydroxypropylcellulose) (HPC)); 101 % of control and 105 % of control (dose: 0.12 mg/kg/injection, schedule: Q01DX005 (ip), vehicle: Klucel (hydroxypropylcellulose) (HPC)); 107 % of control and 110 % of control (dose: 0.25 mg/kg/injection, schedule: Q01DX005 (ip), vehicle: Klucel (hydroxypropylcellulose) (HPC)); 106 % of control and 108 % of control (dose: 0.5 mg/kg/injection, schedule: Q01DX005 (ip), vehicle: Klucel (hydroxypropylcellulose) (HPC)).

As to `CC(=O)N[C@@H](Cc1ccc(N(CCCl)CCCl)cc1)C(=O)ON1C(=O)CCC1=O`, the T/C runs as follows: (dose: 1.45 mg/kg/injection, schedule: Q03HX008 (ip), vehicle: saline) 105 % of control; (dose: 2.9 mg/kg/injection, schedule: Q03HX008 (ip), vehicle: saline) 105 % of control; (dose: 5.8 mg/kg/injection, schedule: Q03HX008 (ip), vehicle: saline) 115 % of control.

For the compound `Nc1nc2c(c(=O)[nH]1)N(C=O)C(CNc1ccc(C(=O)N[C@@H](CCC(=O)O)C(=O)O)cc1)CN2` (some centres undefined), the T/C by setting is: (dose: 128.0 mg/kg/injection, schedule: Q01DX005 (ip), vehicle: suspension in saline) 98 % of control; (dose: 256.0 mg/kg/injection, schedule: Q01DX005 (ip), vehicle: suspension in saline) 97 % of control; (dose: 512.0 mg/kg/injection, schedule: Q01DX005 (ip), vehicle: suspension in saline) 100 % of control.

For `NC(CSC(c1ccccc1)(c1ccccc1)c1ccccc1)C(=O)O` (centres undefined), the T/C runs as follows: (dose: 32.0 mg/kg/injection, schedule: Q01DX005 (ip), vehicle: Klucel (hydroxypropylcellulose) (HPC)) 99 % of control and 106 % of control; (dose: 64.0 mg/kg/injection, schedule: Q01DX005 (ip), vehicle: Klucel (hydroxypropylcellulose) (HPC)) 102 % of control and 110 % of control; (dose: 128.0 mg/kg/injection, schedule: Q01DX005 (ip), vehicle: Klucel (hydroxypropylcellulose) (HPC)) 114 % of control and 100 % of control; (dose: 256.0 mg/kg/injection, schedule: Q01DX005 (ip), vehicle: Klucel (hydroxypropylcellulose) (HPC)) 121 % of control.

Consider `CC1(C)N=C(N)N=C(N)N1c1ccc(CCCCc2ccc(S(=O)(=O)F)cc2Cl)c(Cl)c1`, for which the T/C reads like this: under setting [18], 97 % of control; under setting [12], 116 % of control; under setting [13], 96 % of control; (dose: 133.0 mg/kg/injection, schedule: Q04DX003 (ip), vehicle: saline with Tween-80) 102 % of control; (dose: 200.0 mg/kg/injection, schedule: Q04DX003 (ip), vehicle: saline with Tween-80) 108 % of control; (dose: 300.0 mg/kg/injection, schedule: Q04DX003 (ip), vehicle: saline with Tween-80) 95 % of control.

Source of the values: PubChem BioAssay AID334 (DTP/NCI, 2004).
